Measurements as given in patent publication US20050234063A1, “Therapeutic agent for brain hemorrhage” (priority 2002, published 2005).

Tests used:
[1] = test system: subarachnoid bleeding model animal; conditions: subarachnoid bleeding model animal injected with one's own blood; Non-patent Reference 6; cited from earlier work
[2] = disclosed in Patent Reference 1 (WO 96/10023); cited from earlier work
AMPA receptor = conditions: disclosed in Patent Reference 1 (WO 96/10023); cited from earlier work
[3] = test system: ischemic reperfusion model; conditions: Non-patent Reference 5; cited from earlier work
[4] = test system: cerebral hemorrhage model; assay: Neurological symptom score in collagenase-induced rat cerebral hemorrhage model; assay type: in vivo; conditions: 10 or 20 mg/kg/h; for neurological symptom score on the 2nd day after collagenase injection, versus physiological saline administration group / neurological symptom score on the 14th day after collagenase injection, versus physiological saline administration group: 24 h intravenous continuous injection started 30 min after collagenase, Steel test
Description: A cerebral hemorrhage model was prepared by the following procedure by adding a partial modification to the method of Rosenberg et al. (Stroke, 21, 801-807, 1990). Each of male Sprague-Dawley rats (240 to 330 g in body weight, Charles River Japan) was subjected to continuous anesthesia with 1% halothane under spontaneous respiration and fixed on a stereotaxic instrument. The skull was exposed by carrying out median skin incision of the head of the animal, and a small bone window was opened on the skull using a dental drill (C730, MINIMO) at a position of 0.2 mm in the front side (A: +0.2 mm) and 3.0 mm in the left side (L: +3.0 mm) based on dBregma in accordance with the Paxinos's brain pictorial book (Paxinos G and Watson C, The rat brain in the stereotaxic coordinates (1986) Academic Press, New Yolk). An administration needle of 30G was inserted to a depth of 6.0 mm (H: −6.0 mm) from the skull and then pulled out 0.3 mm to ensure an administration space (central part of the striatum). A solution of collagenase (10 units/ml, type IV, Lot 99H8641, Sigma) was injected at a flow rate of 0.2 μl/min for 7 minutes (1.4 μl) using a micro-syringe pump (Neuroscience Syringe Pump 100, Muromachi). The administration needle was slowly pulled out after completion of the injection, scalp suture was carried out, and then the animal was revived by warming up under an incandescent lamp. It has been reported that a cerebral hemorrhage locally limited to the striatum is generated 0.5 to 4 hours after injection of collagenase in this rat cerebral hemorrhage model (Stroke, 27, 2312-2320, 1996).
As the administration of medicament, zonampanel monohydrate (hereinafter, compound a) was used. After 30 minutes of the collagenase injection, intravenous injection of zonampanel was started via a canula indwelled in the common jugular vein. The compound a was dissolved in physiological saline at a concentration of 10 mg/5 ml or 20 mg/5 ml and then subjected to 24 hours of intravenous continuous injection under shading at a dose of 10 mg/5 ml/kg/h (compound a (10 mg/kg) administration group) or 20 mg/5 ml/kg/h (compound a (20 mg/kg) administration group). In the control group, physiological saline was subjected to 24 hours of intravenous continuous injection at a dose of 5 ml/kg/h (physiological saline administration group). The number of animals in respective groups was 6 animals in the compound a (10 mg/kg) administration group, 9 animals in the compound a (20 mg/kg) administration group, and 9 animals in the physiological saline administration group.
Staring after 30 minutes of the injection of collagenase into the striatum, the compound a was subjected to 24 hours of intravenous continuous injection at a dose of 10 mg/kg/h (compound a (10 mg/kg) administration group, 6 cases) or 20 mg/kg/h (compound a (20 mg/kg) administration group, 9 cases), and a neurological symptom of each animal was observed before the injection of collagenase and on the 2nd and 14th days after the collagenase injection. Physiological saline was administered to the control group (physiological saline administration group, 9 cases).
Scoring criteria of the neurological symptom are as follows. This was scored by 5 steps (O to 4) based on the behavior of each animal when the waist part of the animal was pushed toward the front side.
Score 1: Turning right is predominant but sometimes turns left.
Score 0: Normal, no left-right turning inclination. […]

[5] = test system: cerebral infarction models; conditions: various cerebral infarction models; reported; cited from earlier work

| Structure (SMILES) | effect on vascular permeability acceleration [1] | water-solubility [2] | AMPA receptor binding activity (AMPA receptor) | time after drug administration from which the neurological symptoms improving action is observed [3] | neurological symptom score on the 2nd day after collagenase injection, versus physiological saline administration group ([4]; listed as zonampanel, monohydrate) | neurological symptom score on the 2nd day after collagenase injection, versus physiological saline administration group ([4]; monohydrate) | neurological symptom score on the 14th day after collagenase injection, versus physiological saline administration group ([4]; p<0.05, listed as zonampanel, monohydrate) | neurological symptom score on the 14th day after collagenase injection, versus physiological saline administration group ([4]; p<0.05, monohydrate) | change of neurological symptom score as the days elapsed, in comparison with the control ([4]; 24 h intravenous continuous injection, days 0 to 14 (FIG. 1)) | effect on progress of infarction foci [5] |
| --- | --- | --- | --- | --- | --- | --- | --- | --- | --- | --- |
| CC1=NN=C(c2ccc(N)cc2)c2cc3c(cc2C1)OCO3 [GYK152466] | inhibits vascular permeability acceleration |  |  |  |  |  |  |  |  |  |
| O.O=C(O)Cn1c(=O)c(=O)[nH]c2cc([N+](=O)[O-])c(-n3ccnc3)cc21 [compound a, [7-(1H-imidazol-1-yl)-6-nitro-2,3-dioxo-3,4-dihydroquinoxalin-1(2H)-yl]acetic acid monohydrate] |  | high | potent and selective | ≥ 24 hours | does not show significant effect | almost the same | significant improving effect | significantly light | improving tendency | inhibit progress of infarction foci |
